# Data from patent US20210386792A1, “A METHOD FOR INCREASING POPULATION OF SPERMATOGONIAL STEM CELLS” (priority 2018, published 2021).
# Key:
# TECs [1] = assay: Microvessel density (CD31 immunostaining) in testes sections from busulfan-treated mice; assay type: in vivo, mouse; conditions: wild-type mice, 5 weeks after busulfan vs vehicle
# Description: Testes were dissected from male mice were cryoprotected overnight in 20% (wt vol^−1) sucrose then frozen in OCT (Tissue-Tek). Testis sections (10 or 30 m) were blocked (5% normal goat serum and 0.1% bovine serum albumin in 0.1% PBS-T) for 1 hour and washed in 0.1% PBS-T. Primary antibodies: anti-CD31 rat-pAb (1:50; BD science, Cat: 550274), anti-PLZF rabbit-polyclonal Ab (1:50; Santa Cruz, Cat: 22839), anti-DDX4 rabbit pAb (1:200; Abcam, Cat: 13840), anti-Sox9 rabbit pAb (1:200; Millipore, Cat: ABE579), anti-GDNF rabbit polyclonal Ab (1:50; Santa Cruz, Cat: SC328) were diluted in blocking buffer and incubated for 2 hours at RT, then incubated with either anti-mouse Alexa 594 (1:1000, Thermo Fischer, Cat: A110323) or anti-rabbit Alexa 488 (1:1000, Thermo Fischer, Cat: A32723) at RT for 30 minutes. Sections were stained with for 1 min to detect nuclei. […] Digital images were analyzed for the area and density of endothelial cell markers, germline stem cell markers and GDNF by counting 5 random 20× fields per testis section.
# Mice were sacrificed 5-6 weeks after Busulfan treatment and tissues were fixed in paraformaldehyde overnight and then embedded in paraffin. […] After all cross sectional areas were counted, the field was randomly moved and all cross-sectional tubules counted in that field. This was continuing until the 10-20 tubules were counted per slide. […]
# SSCs [2] = conditions: mice, no transplantation; cited from earlier work
# SSCs [3] = assay: Restoration of spermatogenesis after busulfan exposure; assay type: in vivo, mouse; conditions: mice, no transplantation
# TECs [4] = assay: TECs proliferation and apoptosis assays; assay type: cell-based, mouse; conditions: TECs in culture, busulfan 800 μM vs DMSO
# Description: TECs Proliferation and Apoptosis Assays
# 5×10^3 testicular ECs per well were plated on 8-chamber slide (LabteK) coated with 0.1% gelatin. Busulfan (800 μM) or DMSO were added to each well 24 hours after seeding and cultured for 72 or 96 hours. 10 μM BrdU (BD Pharmingen™) was added to media 72 hours after busulfan treatment, then incubated for 2 hours. Samples were stained with anti-BrdU (1:50; Invitrogen), anti-γ-H2AX (1:400; Millipore) and anti-cleaved caspase 3 (1:400; Cell Signaling). BrdU^+ cells in 10 random high-powered fields were counted and statistics were analyzed using Graph Pad Prism. Each condition was performed in triplicate.
# GDNF = assay: Western blot of GDNF expression in whole testis lysates; assay type: in vivo, mouse; conditions: 5 weeks after busulfan vs PBS
# From the text: Testes harvested from vehicle or busulfan treated-wild type mice were homogenized in RIPA buffer and protein concentration quantified by the BioRad DC Protein Assay. Twenty-five ug of protein per sample were separated by SDS-PAGE, probed with anti-GDNF rabbit polyclonal antibody (1:500; Santa Cruz, Cat: 13147) or anti-cleaved Caspase 3 rabbit polyclonal antibody (1:1000; Cell Signaling, Cat: 9664) and detected by chemiluminescence (ECL, Amersham). Blots were stripped and re-probed with β-actin as a loading control. See Supplementary material for uncropped blots.
# FIG. 1. a. Quantication of Gdnf mRNA in Sertoli cells and TECs, and GDNF levels by ELISA in conditioned media from Sertoli cells or TECs without or with FGF-2 (20 ngml-1) treatment for 3 days. b. Murine GFP+Thy1.2+SSCs were co-cultured with TECs or testicular cells depleted of CD31+ TECs but containing all other cell populations in the testes. After 3 weeks, SSC colonies were absent in CD31-depleted testicular cell co-cultures with Sertoli and PTM cells present, while a signicant number of GFP+ Thy1.2+ SSC colonies were present in co-cultures with TECs alone. c. Immunouorescence staining for CD31 (for ECs) on testis sections from wildtype mice 5 weeks after vehicle or busulfan treatment. […] Quantification of MVD and vessel length is shown on the right, n=3.
structure (smiles),measurement,setting,value
CS(=O)(=O)OCCCCOS(C)(=O)=O [busulfan],microvessel density in testes sections,TECs [1],significant decrease
same,time to restoration of spermatogenesis following exposure to busulfan,SSCs [2],30-36 weeks
same,time required for restoration of murine spermatogenesis post-busulfan treatment,SSCs [3],6 months
same,TEC apoptosis (cleaved caspase 3),TECs [4]; 72 or 96 hours,increased apoptosis
same,TEC proliferation (BrdU),TECs [4]; 72 hours,decreased proliferation
same,testis GDNF expression,GDNF,global decrease
